{"source": "patent US20040132817A1", "about": "“Use of an histone deacetylase inhibitor for the treatment of diseases associated with an hpv infection” (priority 2001, published 2004)", "key": {"[1]": {"system": "HPV18 E7", "test": "Western blot of HPV18 E7 in HeLa cells", "format": "cell-based", "description": "(C) Western blot analysis. 75 μg of total cellular protein was loaded on a 12% SDS-PAGE gel. After electrotransfer, the filters were consecutively incubated with HPV18 E7 and a monoclonal actin antibody.\n(§1) (A) Western blot analysis. 75 μg of total cellular protein was loaded on a 12% SDS-PAGE gel. After electrotransfer, the filters were incubated with antibodies directed against HPV18 E7, p21^CIP1 (=p21), p27^KIP1 (=p27) and cdk2.\n(§2) Cellular extracts were separated in 8-12% SDS PAGE gels and electrotransferred as described elsewhere (Finzer et al., Oncogene 19 (2000), 3235-3244; Soto et al., Oncogene 18 (1999), 3187-3198). The following antibodies were used: cyclin E (HE 12), cyclin D 1 (HD 11), cdk2 (M2), (D-12; Santa Cruz Biotechnology, Inc., Santa Cruz, USA), cdk4 (C-22), cdk6 (C-21), p27^KIP1 (C-19), (K25020), p45^SKP2 (N-19), HPV18-E7 (N-19) and E2F-1 (KH95) (Santa Cruz Biotechnology, Inc. Santa Cruz, USA), p21^CIP1 (C24420; Transduction Laboratories, Lexington, USA), pRB (NCL-RB; Novocastra, UK), p16^INK4 (15126E, Pharmingen, San Diego, USA) and HPV 16 E7 (ZYMED Lab. Inc., San Francisco, USA). Cyclin A was kindly provided by M. Pagano (Pagano et al., EMBO J. 11 (1992), 961-971). Equal protein transfer and loading was routinely checked by incubating the filters with a monoclonal actin antibody (ICN Biomedicals, Ohio, USA)."}, "[2]": {"system": "cdk2", "test": "Western blot of cdk2 in HeLa cells", "format": "cell-based, human", "description": "(§3) 50 μg of protein were separated on 12% SDS-PAGE minigels. After electrotransfer, the filters were incubated with antibodies against cyclin D1, cyclin E, cyclin A or cdk2, cdk4 or cdk6 specific antibodies. Equal protein loading was confirmed by reincubating the filters with a monoclonal actin antibody.\nas §1\nas §2, with “Equal protein transfer and loading was routinely checked by incubating the filters with a monoclonal actin antibody (ICN Biomedicals, Ohio, USA).” left out"}, "[3]": {"system": "cdk4", "test": "Western blot of cdk4 in HeLa cells", "format": "cell-based, human", "details": "6 mM sodium butyrate, 16 hours", "description": "as §3, §2"}, "[4]": {"system": "cdk6", "test": "Western blot of cdk6 in HeLa cells", "format": "cell-based, human", "details": "6 mM sodium butyrate, 16 hours", "description": "as §3, §2"}, "[5]": {"system": "pRb", "test": "Western blot of pRb in HPV16 E6-, E7-, E6/E7-immortalized keratinocytes", "format": "cell-based, human", "details": "6 mM sodium butyrate, 16 hours", "description": "Western blot analysis of cellular extracts obtained from E6-, E7-, and E6/E7-Immortalized cells which were separated in 8% (pRb) and 12% SDS-PAGE gels. After electrotransfer, the filters were incubated with pRb, E2F-1, cyclin E and actin antibodies. […] Due to quantitative differences of pRb and cyclin E levels in E7- and E6/E7-positive cells, the filters were exposed for different times.\nHPV18-positive cervical Carcinoma cells (HeLa) were maintained in Dulbecco's modified Eagle's medium (DMEM), supplemented with 10% fetal calf serum (Gibco BRL, Rockville, USA), 1% penicillin and streptomycin (Sigma, Deisenhofen, Deutschland). Primary human keratinocytes, immortalized by E6-, E7- and E6/E7-open reading frames carrying amphotroptic retroviruses were cultivated in “Keratinocyte Medium Kit” (Sigma). Human foreskin keratinocytes transformed with HPV-16 E6/E7 either under the control of a human β-actin promoter (,1321″) or under the control of the authentic upstream regulatory region HPV (,1637″) were a kind gift of Dr. R. Schlegel (Georgetown University, Washington, USA) (Münger et al., J. Virol. 63 (1989), 4414-4423; Villa & Schlegel, Virology 181 (1991), 374-377). Cells were grown in 3 parts of keratinocyte-serum free medium (K-SFM, GIBCO, BRL) and 1 part of DMEM containing 10% fetal calf serum (GIBCO, BRL) and 0.75% gentamycin, 0.25% penicillin/streptomycin, respectively\nas §2, with “Cyclin A was kindly provided by M. Pagano (Pagano et al., EMBO J. 11 (1992), 961-971). Equal protein transfer and loading was routinely checked by incubating the filters with a monoclonal actin antibody (ICN Biomedicals, Ohio, USA).” left out"}, "[6]": {"system": "HPV 16 E7", "test": "Western blot of HPV 16 E7 in \"1321\" and \"1637\" keratinocytes", "format": "cell-based, HPV16", "details": "\"1321\" and \"1637\" cells, 16 hours after NaB application", "description": "(§4) (B) 75 μg of protein was separated in 12% SDS-PAGE gels as described above (see FIG. 2).\nas §2"}, "[7]": {"system": "p21CIP1", "test": "Western blot of p21CIP1 in \"1321\" and \"1637\" keratinocytes", "format": "cell-based, human", "details": "\"1321\" and \"1637\" cells, 6 mM sodium butyrate, 16 hours", "description": "as §4, §2"}, "[8]": {"system": "p27KIP1", "test": "Western blot of p27KIP1 in \"1321\" and \"1637\" keratinocytes", "format": "cell-based, human", "details": "\"1321\" and \"1637\" cells, 6 mM sodium butyrate, 16 hours", "description": "as §4, §2"}, "[9]": {"system": "cdk2", "test": "Histone H1 kinase assay of cdk2 complexes from \"1321\" and \"1637\" keratinocytes", "format": "cell-based, human", "details": "\"1321\" and \"1637\" cells, 6 mM sodium butyrate, 16 hours", "description": "(A) Upper panel: cdk2 complexes were immunoprecipitated and assayed for their activity using histone H1 as substrate. Lower panels: Western blot analysis of the cdk 2 complexes. Filters were incubated with specific antibodies against p21^CIP1 (=p21) and p27^KIP1 (=p27). Equal precipitation and loading was controlled by incubation with a cdk 2 antibody.\nFor cell fractionation, cell monolayers were washed twice with PBS and harvested by trypsinisation. Cell extract preparation and cdk2 activity assays were exactly done as described by Blomberg and Hoffmann, Mol. Cell. Biol. 19 (1999), 6183-6194. In addition, cdk2 was immunoprecipitated and analyzed by immunoblotting. Beads used for cdk2 kinase assay were washed 3 times with lysis buffer (Blomberg and Hoffmann, 1999), incubated with Laemmli sample buffer and boiled for 5 min. Supernatant was analyzed by SDS-PAGE gels. Immunoblotting was carried out with the following antibodies: p21^CIP1 (C24420) and p27^KIP1 (K25020; Transduction Laboratories) or HPV18-E7 (N-19; Santa Cruz, Inc.). Cdk2 specific antibodies or preimmune serum were kindly provided by I. Hoffmann (DKFZ, Heidelberg)."}}}
{"smiles": "CCCC(=O)[O-].[Na+]", "note": "[sodium butyrate]", "values": [{"measurement": "HPV18 E7 oncoprotein expression under growth arrest", "setting": "[1]; 6 mM sodium butyrate, 16 hours", "result": "E7 oncogene-expression could be discerned"}, {"measurement": "HPV18 E7 oncoprotein, time course", "setting": "[1]; NaB, six hours after application", "result": "significant reduction"}, {"measurement": "cdk2 expression", "setting": "[2]; 6 mM sodium butyrate, 16 hours", "result": "neither the cyclin-dependent kinase 2 (cdk2) nor cdk4 or cdk6 revealed any significant influence on their expression rates"}, {"measurement": "amount of cdk2, time course", "setting": "[2]; NaB time course", "result": "completely unaffected"}, {"measurement": "cdk4 expression", "setting": "[3]", "result": "neither the cyclin-dependent kinase 2 (cdk2) nor cdk4 or cdk6 revealed any significant influence on their expression rates"}, {"measurement": "cdk6 expression", "setting": "[4]", "result": "neither the cyclin-dependent kinase 2 (cdk2) nor cdk4 or cdk6 revealed any significant influence on their expression rates"}, {"measurement": "pRb state in E6-containing keratinocytes", "setting": "[5]; HPV16 E6-immortalized keratinocytes", "result": "hypophosphorylated"}, {"measurement": "pRb level in E6/E7-immortalized keratinocytes", "setting": "[5]; HPV16 E6/E7-immortalized keratinocytes", "result": "again revealed pRb degradation"}, {"measurement": "pRb level in E7-expressing keratinocytes", "setting": "[5]; HPV16 E7-immortalized keratinocytes", "result": "completely disappeared"}, {"measurement": "HPV 16 E7 protein compared with controls", "setting": "[6]", "result": "equal amounts"}, {"measurement": "p21CIP1 level", "setting": "[7]", "result": "increased to the same extent"}, {"measurement": "p27KIP1 level", "setting": "[8]", "result": "increased to the same extent"}, {"measurement": "cdk2 kinase activity (histone H1)", "setting": "[9]", "result": "inability of cdk2 to phosphorylate histone H1"}]}
